In ChEMBL document CHEMBL3991601, “The target landscape of clinical kinase drugs” (Science, 2017) one finds Kd data, which are given here for 13 compounds.

In experiment [1] the target is Cyclin-dependent kinase 5 (Homo sapiens, UniProt Q00535).
Experiment [2] deals with Dual specificity protein kinase CLK2 (Homo sapiens, UniProt P49760).
Experiment [3] deals with T1, Cyclin-G-associated kinase (Homo sapiens, UniProt O14976).
T1 sequence (O14976 whole entry): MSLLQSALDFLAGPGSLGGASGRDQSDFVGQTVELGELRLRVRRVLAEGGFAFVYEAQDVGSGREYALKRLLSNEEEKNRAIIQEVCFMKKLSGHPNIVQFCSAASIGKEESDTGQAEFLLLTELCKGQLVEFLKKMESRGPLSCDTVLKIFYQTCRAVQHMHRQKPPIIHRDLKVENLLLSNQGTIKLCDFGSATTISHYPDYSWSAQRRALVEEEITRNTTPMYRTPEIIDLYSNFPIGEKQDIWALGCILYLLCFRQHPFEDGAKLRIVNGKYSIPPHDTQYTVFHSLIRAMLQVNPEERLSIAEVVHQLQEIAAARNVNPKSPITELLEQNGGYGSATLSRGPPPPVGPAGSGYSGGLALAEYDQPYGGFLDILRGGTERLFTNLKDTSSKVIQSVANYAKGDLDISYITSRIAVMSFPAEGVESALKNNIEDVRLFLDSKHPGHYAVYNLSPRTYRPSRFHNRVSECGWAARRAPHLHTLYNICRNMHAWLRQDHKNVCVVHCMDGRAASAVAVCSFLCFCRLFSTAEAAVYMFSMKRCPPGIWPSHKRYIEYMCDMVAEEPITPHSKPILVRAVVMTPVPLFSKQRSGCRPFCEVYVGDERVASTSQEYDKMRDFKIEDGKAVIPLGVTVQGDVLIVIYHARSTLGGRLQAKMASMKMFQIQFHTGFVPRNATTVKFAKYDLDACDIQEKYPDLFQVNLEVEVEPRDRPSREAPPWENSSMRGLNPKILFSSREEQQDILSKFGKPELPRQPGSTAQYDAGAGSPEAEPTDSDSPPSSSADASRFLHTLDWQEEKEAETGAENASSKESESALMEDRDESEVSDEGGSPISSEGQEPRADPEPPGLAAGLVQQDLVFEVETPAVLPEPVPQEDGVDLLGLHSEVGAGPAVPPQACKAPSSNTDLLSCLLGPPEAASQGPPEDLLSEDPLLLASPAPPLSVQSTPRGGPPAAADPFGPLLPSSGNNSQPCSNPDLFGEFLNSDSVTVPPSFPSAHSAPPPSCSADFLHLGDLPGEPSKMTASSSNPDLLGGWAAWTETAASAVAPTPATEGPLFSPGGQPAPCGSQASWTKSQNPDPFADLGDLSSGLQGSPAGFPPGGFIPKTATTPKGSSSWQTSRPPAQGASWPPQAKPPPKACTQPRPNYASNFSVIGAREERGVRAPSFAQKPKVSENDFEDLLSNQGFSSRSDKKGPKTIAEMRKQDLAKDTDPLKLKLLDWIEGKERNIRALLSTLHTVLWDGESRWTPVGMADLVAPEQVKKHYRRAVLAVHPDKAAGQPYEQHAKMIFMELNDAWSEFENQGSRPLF

The target of experiment [4] is Tyrosine-protein kinase Lck (Homo sapiens, UniProt P06239).
Sequence of Tyrosine-protein kinase Lck (P06239 whole entry): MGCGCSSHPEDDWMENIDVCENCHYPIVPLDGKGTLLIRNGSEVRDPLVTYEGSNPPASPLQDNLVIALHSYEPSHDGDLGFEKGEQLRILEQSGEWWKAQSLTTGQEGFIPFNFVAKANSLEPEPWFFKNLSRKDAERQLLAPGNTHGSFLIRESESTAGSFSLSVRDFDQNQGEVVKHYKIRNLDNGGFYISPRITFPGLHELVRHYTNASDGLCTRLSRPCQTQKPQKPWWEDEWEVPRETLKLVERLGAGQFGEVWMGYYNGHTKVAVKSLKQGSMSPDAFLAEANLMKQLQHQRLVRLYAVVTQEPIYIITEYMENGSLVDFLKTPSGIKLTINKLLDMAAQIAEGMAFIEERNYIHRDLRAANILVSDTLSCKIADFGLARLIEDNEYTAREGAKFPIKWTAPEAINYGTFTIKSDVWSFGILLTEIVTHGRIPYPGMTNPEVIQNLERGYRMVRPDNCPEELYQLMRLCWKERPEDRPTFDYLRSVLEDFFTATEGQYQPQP
The target in experiment [5] is T2, ATP-dependent 6-phosphofructokinase, platelet type (Homo sapiens, UniProt Q01813).
T2 sequence (Q01813 whole entry): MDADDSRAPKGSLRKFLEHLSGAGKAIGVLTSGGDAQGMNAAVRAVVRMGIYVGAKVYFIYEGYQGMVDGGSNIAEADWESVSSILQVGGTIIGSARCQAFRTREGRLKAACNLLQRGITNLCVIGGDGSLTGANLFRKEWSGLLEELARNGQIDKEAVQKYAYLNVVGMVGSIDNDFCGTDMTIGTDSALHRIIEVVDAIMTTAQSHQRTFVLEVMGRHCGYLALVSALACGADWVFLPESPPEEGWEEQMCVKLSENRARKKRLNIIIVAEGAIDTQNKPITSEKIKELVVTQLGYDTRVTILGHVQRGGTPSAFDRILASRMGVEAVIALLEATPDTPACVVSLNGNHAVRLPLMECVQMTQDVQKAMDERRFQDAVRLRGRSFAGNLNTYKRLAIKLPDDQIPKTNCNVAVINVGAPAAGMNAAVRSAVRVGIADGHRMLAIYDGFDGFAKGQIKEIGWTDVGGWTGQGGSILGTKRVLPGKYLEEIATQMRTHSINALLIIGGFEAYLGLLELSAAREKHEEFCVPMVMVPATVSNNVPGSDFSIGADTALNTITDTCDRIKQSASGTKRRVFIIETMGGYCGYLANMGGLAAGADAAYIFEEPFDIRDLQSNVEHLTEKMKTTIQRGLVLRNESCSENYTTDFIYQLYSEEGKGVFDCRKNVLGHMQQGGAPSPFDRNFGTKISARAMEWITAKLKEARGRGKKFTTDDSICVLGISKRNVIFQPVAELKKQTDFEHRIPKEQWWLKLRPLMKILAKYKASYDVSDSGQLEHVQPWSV

The target of experiment [6] is Membrane-associated progesterone receptor component 1 (Homo sapiens, UniProt O00264).
Sequence of Membrane-associated progesterone receptor component 1 (O00264 whole entry): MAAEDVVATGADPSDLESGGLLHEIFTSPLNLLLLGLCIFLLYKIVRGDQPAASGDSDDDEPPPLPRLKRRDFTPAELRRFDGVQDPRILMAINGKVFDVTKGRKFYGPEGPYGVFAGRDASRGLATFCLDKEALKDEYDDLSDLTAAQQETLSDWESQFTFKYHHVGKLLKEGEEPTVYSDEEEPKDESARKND
In experiment [7] the target is T3, cGMP-dependent protein kinase 1 (Homo sapiens, UniProt Q13976).
T3 sequence (Q13976 whole entry): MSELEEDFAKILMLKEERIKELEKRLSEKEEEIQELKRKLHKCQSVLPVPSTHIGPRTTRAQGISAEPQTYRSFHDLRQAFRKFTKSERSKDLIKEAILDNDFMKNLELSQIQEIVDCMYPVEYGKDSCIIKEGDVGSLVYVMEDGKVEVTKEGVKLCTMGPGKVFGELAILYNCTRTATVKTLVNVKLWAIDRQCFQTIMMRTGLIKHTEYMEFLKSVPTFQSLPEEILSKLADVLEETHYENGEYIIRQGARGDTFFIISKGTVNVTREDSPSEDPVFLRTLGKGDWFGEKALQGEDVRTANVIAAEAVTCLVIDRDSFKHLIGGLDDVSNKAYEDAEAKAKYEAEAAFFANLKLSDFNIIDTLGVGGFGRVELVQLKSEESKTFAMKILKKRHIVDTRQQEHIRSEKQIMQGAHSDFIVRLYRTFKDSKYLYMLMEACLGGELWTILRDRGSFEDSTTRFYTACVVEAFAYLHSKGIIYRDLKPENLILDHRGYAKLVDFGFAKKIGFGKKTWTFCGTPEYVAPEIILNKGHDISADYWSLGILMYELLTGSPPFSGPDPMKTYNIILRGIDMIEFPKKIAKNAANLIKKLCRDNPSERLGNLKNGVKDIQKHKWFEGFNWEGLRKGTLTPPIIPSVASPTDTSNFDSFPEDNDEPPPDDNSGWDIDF

For experiment [8], the target named is Serine/threonine-protein kinase 10 (Homo sapiens, UniProt O94804).
Sequence of Serine/threonine-protein kinase 10 (O94804 whole entry): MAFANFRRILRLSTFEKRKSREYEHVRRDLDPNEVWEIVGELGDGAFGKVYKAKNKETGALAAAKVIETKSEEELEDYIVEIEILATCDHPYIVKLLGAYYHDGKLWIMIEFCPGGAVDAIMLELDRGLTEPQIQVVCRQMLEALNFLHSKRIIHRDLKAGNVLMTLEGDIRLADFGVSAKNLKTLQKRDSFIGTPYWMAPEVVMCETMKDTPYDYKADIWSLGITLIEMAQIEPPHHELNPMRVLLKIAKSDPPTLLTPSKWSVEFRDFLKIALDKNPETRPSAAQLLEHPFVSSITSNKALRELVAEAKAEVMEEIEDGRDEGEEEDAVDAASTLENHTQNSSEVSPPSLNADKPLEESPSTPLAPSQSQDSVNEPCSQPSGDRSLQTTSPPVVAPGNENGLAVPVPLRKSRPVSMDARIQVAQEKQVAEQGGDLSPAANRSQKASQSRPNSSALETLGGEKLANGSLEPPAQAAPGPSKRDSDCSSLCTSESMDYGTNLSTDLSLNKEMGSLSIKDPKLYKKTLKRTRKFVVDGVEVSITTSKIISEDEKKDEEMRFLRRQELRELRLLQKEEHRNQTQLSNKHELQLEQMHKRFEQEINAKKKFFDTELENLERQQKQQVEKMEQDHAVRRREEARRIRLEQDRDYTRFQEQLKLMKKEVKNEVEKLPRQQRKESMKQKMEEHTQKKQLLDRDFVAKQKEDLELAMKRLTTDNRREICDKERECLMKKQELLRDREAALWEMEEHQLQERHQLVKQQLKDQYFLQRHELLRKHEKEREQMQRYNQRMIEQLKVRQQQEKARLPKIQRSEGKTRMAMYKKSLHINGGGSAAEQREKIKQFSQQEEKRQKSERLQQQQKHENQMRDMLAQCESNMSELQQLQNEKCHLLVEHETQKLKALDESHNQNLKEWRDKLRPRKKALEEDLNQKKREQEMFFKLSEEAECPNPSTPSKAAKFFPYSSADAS

The structures appear in SMILES notation. Calls of active or inactive are those of the source. For most assays here, no stated cut-off is given here; in the data, actives have a measured Kd and inactives only a lower limit.

Sequence of Dual specificity protein kinase CLK2 (P49760 whole entry): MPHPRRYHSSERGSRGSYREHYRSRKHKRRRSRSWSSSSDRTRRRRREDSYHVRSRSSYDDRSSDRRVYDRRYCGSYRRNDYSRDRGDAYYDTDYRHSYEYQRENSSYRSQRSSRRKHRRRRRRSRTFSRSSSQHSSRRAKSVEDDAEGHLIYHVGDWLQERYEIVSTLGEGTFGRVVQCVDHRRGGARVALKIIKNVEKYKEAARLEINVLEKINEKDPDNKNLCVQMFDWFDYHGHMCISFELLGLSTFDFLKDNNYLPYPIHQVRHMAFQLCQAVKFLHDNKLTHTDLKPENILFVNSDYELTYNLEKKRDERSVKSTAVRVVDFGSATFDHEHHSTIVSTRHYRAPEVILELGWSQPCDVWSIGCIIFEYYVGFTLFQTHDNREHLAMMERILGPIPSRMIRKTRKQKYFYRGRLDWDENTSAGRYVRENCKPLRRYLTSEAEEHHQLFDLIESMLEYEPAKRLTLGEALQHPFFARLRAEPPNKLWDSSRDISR
Sequence of Cyclin-dependent kinase 5 (Q00535 whole entry): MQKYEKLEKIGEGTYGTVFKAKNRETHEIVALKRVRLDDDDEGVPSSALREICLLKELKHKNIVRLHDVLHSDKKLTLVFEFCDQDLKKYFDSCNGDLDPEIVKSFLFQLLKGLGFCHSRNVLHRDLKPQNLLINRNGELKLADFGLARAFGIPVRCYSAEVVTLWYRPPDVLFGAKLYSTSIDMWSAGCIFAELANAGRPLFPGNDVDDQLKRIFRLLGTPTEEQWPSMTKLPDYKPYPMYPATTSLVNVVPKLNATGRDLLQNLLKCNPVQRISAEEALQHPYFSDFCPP

Turning to `Cc1nc2cc(-c3nn(C(C)C)c4ncnc(N)c34)ccc2o1`, the Kd in experiment [1], in experiment [2], in experiment [3], in experiment [4], in experiment [5] and in experiment [6] was > 30 µM (inactive) in each case. For the same compound, the Kd (usually the constant that tells how readily two partners part at equilibrium) in experiment [7] is > 30 µM (inactive).

Take `O=C(Nc1c[nH]nc1-c1nc2cc(CN3CCOCC3)ccc2[nH]1)NC1CC1` [AT-9283]: the Kd was > 30 µM (inactive) in experiment [2]; 0.89 µM (active) in experiment [4]; > 30 µM (inactive) in experiment [5]; > 30 µM (inactive) in experiment [6]; > 30 µM (inactive) in experiment [7]; 0.082 µM (active) in experiment [8].

`COc1cc2ncnc(Oc3cccc(NC(=O)Nc4cc(C(C)(C)C(F)(F)F)on4)c3)c2cc1OC` [CEP-32496]: the Kd in experiment [1], in experiment [2], in experiment [3], in experiment [5], in experiment [6] and in experiment [7] was > 30 µM (inactive) in each case. Moreover, the Kd in experiment [8] was > 30 µM (inactive).

For the compound `C#Cc1cccc(Nc2ncnc3cc(OC)c(OCCCCCCC(=O)NO)cc23)c1` [CUDC-101], the Kd is > 30 µM (inactive) in experiment [1]; > 30 µM (inactive) in experiment [2]; 0.482 µM (active) in experiment [3]; > 30 µM (inactive) in experiment [4]; > 30 µM (inactive) in experiment [6]; > 30 µM (inactive) in experiment [7]. For the same compound, the Kd in experiment [8] was 57.5 µM (active).

`CC(C)(C)c1nc(-c2cccc(NS(=O)(=O)c3c(F)cccc3F)c2F)c(-c2ccnc(N)n2)s1` [DABRAFENIB]: the Kd in experiment [1] was 1.07 µM (active); in experiment [2], > 30 µM (inactive); in experiment [3], > 30 µM (inactive); in experiment [4], 0.783 µM (active); in experiment [5] it was > 30 µM (inactive); in experiment [6], > 30 µM (inactive). The Kd in experiment [7] is > 30 µM (inactive).

Take `O=C(Nc1cc(C(F)(F)F)cc(C(F)(F)F)c1)c1cc(Cl)ccc1O` [IMD-0354]: the Kd in experiment [2], in experiment [3], in experiment [4], in experiment [6], in experiment [7] and in experiment [8] was > 30 µM (inactive) in each case.

For the compound `CNC(=O)c1nn(C)c2c1C(C)(C)Cc1cnc(Nc3ccc(N4CCN(C)CC4)cc3)nc1-2` [MILCICLIB], the Kd was > 30 µM (inactive) in experiment [2]; 0.003 µM (active) in experiment [3]; > 30 µM (inactive) in experiment [5]; > 30 µM (inactive) in experiment [6]; > 30 µM (inactive) in experiment [7]; > 30 µM (inactive) in experiment [8].

Turning to `Cn1cc(-c2cnc3ccc4ccc(CS(=O)(=O)NCc5ccccn5)cc4c(=O)c3c2)cn1` [MK-8033], the Kd in experiment [1], in experiment [2], in experiment [3], in experiment [4], in experiment [6] and in experiment [7] was > 30 µM (inactive) throughout. Besides, the Kd in experiment [8] is > 30 µM (inactive).

As to `CCOc1cc2ncc(C#N)c(Nc3ccc(F)c(Cl)c3)c2cc1NC(=O)/C=C/CN(C)C` [PELITINIB], the Kd in experiment [1] is > 30 µM (inactive); in experiment [2] it was > 30 µM (inactive); in experiment [3], 0.117 µM (active); in experiment [5] it was > 30 µM (inactive); in experiment [6], > 30 µM (inactive); in experiment [7], > 30 µM (inactive).

For `CO[C@H]1C[C@@H]2CC[C@@H](C)[C@@](O)(O2)C(=O)C(=O)N2CCCC[C@H]2C(=O)O[C@H]([C@H](C)C[C@@H]2CC[C@@H](OP(C)(C)=O)[C@H](OC)C2)CC(=O)[C@H](C)/C=C(\C)[C@@H](O)[C@@H](OC)C(=O)[C@H](C)C[C@H](C)/C=C/C=C/C=C/1C` [RIDAFOROLIMUS], the Kd in experiment [1], in experiment [2], in experiment [3], in experiment [4], in experiment [6] and in experiment [7] was > 30 µM (inactive) throughout. Further, the Kd in experiment [8] is > 30 µM (inactive).

Regarding `Cn1cc(-c2cnn3c(N)c(Br)c([C@@H]4CCCNC4)nc23)cn1` [SCH-900776], the Kd in experiment [1], in experiment [2], in experiment [3], in experiment [4], in experiment [6] and in experiment [7] was > 30 µM (inactive) in each case. Also, in experiment [8], the equilibrium dissociation constant (Kd) is 4.39 µM (active).

Consider `CO[C@H]1C[C@@H]2CC[C@@H](C)[C@@](O)(O2)C(=O)C(=O)N2CCCC[C@H]2C(=O)O[C@H]([C@H](C)C[C@@H]2CC[C@@H](O)[C@H](OC)C2)CC(=O)[C@H](C)/C=C(\C)[C@@H](O)[C@@H](OC)C(=O)[C@H](C)C[C@H](C)/C=C/C=C/C=C/1C` [SIROLIMUS], for which the Kd in experiment [1], in experiment [2], in experiment [3], in experiment [4], in experiment [5] and in experiment [7] was > 30 µM (inactive) throughout. Besides, the Kd in experiment [8] is > 30 µM (inactive).

Regarding `CC(C)c1cc(CNc2nc(Nc3cc(C4CC4)[nH]n3)cc(N3CCN(C)CC3)n2)on1` [XL-228], the Kd is > 30 µM (inactive) in experiment [1]; > 30 µM (inactive) in experiment [2]; > 30 µM (inactive) in experiment [3]; 0.166 µM (active) in experiment [4]; > 30 µM (inactive) in experiment [5]; > 30 µM (inactive) in experiment [7]. Further, the equilibrium dissociation constant (Kd) in experiment [8] was 0.379 µM (active).
